Assay results reported in patent publication US8110681B2, “Compounds for the treatment of spinal muscular atrophy and other uses” (The United States of America as represented by the …, priority 2006, dated 2012).
Where two headings read alike, the source gives them in different places.

Tested on: SMN2-linked luciferase-reporter gene construct
Test: SMN splice reporter assay (SMN2-linked luciferase reporter, Example 10)
Format: cell-based
Procedure, shortened: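 Values are fold-increase in luciferase signal relative to baseline cells without compound. The cervical carcinoma line used holds a fusion of alternatively spliced SMN2 sequence and luciferase. Readable frame, and thus signal, arises only with exon 7-including splicing.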

[1] = maximum fold increase of reporter signal, average, read-out: SMN Splice Reporter Assay (Example 10) Avg MaxFold Increase
[2] = SMN2-linked luciferase reporter, average
[3] = SMN2-linked luciferase reporter, average maximum fold increase, read-out: SMN Splice Reporter Assay (Example 10) Avg MaxFold Increase

Row | SMILES | maximal fold induction [1] | EC50 [2] [nM] | maximal fold induction [3] | maximal fold induction (read-out: SMN Splice Reporter Assay (Example 10) Avg MaxFold Increase, maximum fold increase of reporter signal, average, heading: SMN Splice Reporter Assay Avg MaxFold Increase)
1 | CC(C(=O)O)c1ccc(N2Cc3cc(-c4cccnc4)ccc3C2=O)cc1 (stereo not shown) [ALB-111889] | 1.05 |  |  | 
2 | O=C1c2ccccc2CN1c1ccc(C2CC2)cc1 [ALB-115802] |  | 61 | 1.28 | 
3 | CC(C(=O)O)c1ccc(N2Cc3ccc(-c4ccc(Cl)c(Cl)c4)cc3C2=O)cc1 (stereo not shown) [ALB-112516] | 1.2 |  |  | 
4 | O=C1c2cc(Br)ccc2CN1c1ccc(C2CCCC2)cc1 [ALB-116072] |  | 68 | 1.36 | 
5 | CC(C(=O)OC(C)(C)C)c1ccc(N2Cc3cccc([N+](=O)[O-])c3C2=O)cc1 (stereo not shown) [ALB-111951] | 1.2 |  |  | 
6 | CC(C)c1ccc(N2Cc3cc(OC(F)F)ccc3C2=O)cc1 [ALB-118159] |  | 2090 | 1.32 | 
7 | COc1ccc2c(c1)CN(c1ccc(C(C)C(=O)OC(C)(C)C)cc1)C2=O (stereo not shown) [ALB-111893] | 1.09 |  |  | 
8 | CCCCCc1cccc2c1C(=O)N(c1ccc(C(C)C(=O)O)cc1)C2 (stereo not shown) [ALB-113497] | 1.18 |  |  | 
9 | CC(C(=O)O)c1ccc(N2Cc3c(cccc3-c3ccccc3)C2=O)cc1 (stereo not shown) [ALB-112220] | 1.22 |  |  | 
10 | CC(C(=O)O)c1ccc(N2Cc3cccc(-c4cccs4)c3C2=O)cc1 (stereo not shown) [ALB-112158] | 1.24 | 11400 |  | 
11 | CC(C)c1ccc(N2Cc3cccc(N(C)C)c3C2=O)cc1 [ALB-117904] | 1.46 | 4370 |  | 
12 | COCCOc1ccc2c(c1)C(=O)N(c1ccc(C(C)C(=O)O)cc1)C2 (stereo not shown) [ALB-115071] | 1.39 | 824 |  | 
13 | CC(C(=O)OC(C)(C)C)c1ccc(N2Cc3ccccc3C2=O)c(Br)c1 (stereo not shown) [ALB-111998] | 1.04 |  |  | 
14 | CC(C)c1ccc(N2Cc3ccc4c(c3C2=O)OCCO4)cc1 [ALB-118160] |  | 46 | 1.43 | 
15 | CC(C(=O)OC(C)(C)C)c1ccc(N2Cc3cc(-c4cccnc4)ccc3C2=O)cc1 (stereo not shown) [ALB-111884] | 1.03 |  |  | 
16 | CC(C(=O)OC(C)(C)C)c1ccc(N2Cc3ccc(N)cc3C2=O)cc1 (stereo not shown) [ALB-111745] | 1.17 | 2120 |  | 
17 | CC(C#N)c1ccc(N2Cc3cc4c(cc3C2=O)OCCO4)cc1 (stereo not shown) [ALB-117571] |  | 401 | 1.3 | 
18 | CC(C(=O)OC(C)(C)C)c1ccc(N2Cc3ccc(NS(=O)(=O)c4ccc(Cl)cc4)cc3C2=O)cc1 (stereo not shown) [ALB-112070] | 1.11 |  |  | 
19 | CC(C(=O)O)c1ccc(N2Cc3ccc(/C=C/C(F)(F)F)cc3C2=O)cc1 (stereo not shown) [ALB-115501] | 1.39 | 2320 |  | 

Row | SMILES | maximal fold induction [1] | EC50 [2] [nM] | maximal fold induction [3] | maximal fold induction (read-out: SMN Splice Reporter Assay (Example 10) Avg MaxFold Increase, maximum fold increase of reporter signal, average, heading: SMN Splice Reporter Assay Avg MaxFold Increase)
20 | CC(C(=O)OC(C)(C)C)c1ccc(N2Cc3ccccc3C2=O)cc1 (stereo not shown) [ALB-111738] | 1.17 | 2300 |  | 
21 | CC(C(=O)O)c1ccc(N2Cc3c(cccc3-c3cccnc3)C2=O)cc1 (stereo not shown) [ALB-112224] | 1.3 |  |  | 
22 | CC(C(=O)O)c1ccc(N2Cc3ccc(-c4cncnc4)cc3C2=O)cc1 (stereo not shown) [ALB-112517] | 1.25 |  |  | 
23 | CC(C(=O)OC(C)(C)C)c1ccc(N2Cc3ccccc3C2=O)cc1-c1ccc(Cl)cc1 (stereo not shown) [ALB-112328] | 1.04 |  |  | 
24 | C/C=C\c1ccc2c(c1)C(=O)N(c1ccc(C(C)COC)cc1)C2 (stereo not shown) [ALB-114089] | 1.55 | 902 |  | 
25 | CC(=O)c1ccc(N2Cc3ccccc3C2=O)cc1 [ALB-112360] | 1.14 | 424 |  | 
26 | COc1cc2c(cc1F)CN(c1ccc(C(C)C)cc1)C2=O [ALB-118413] | 1.39 | 119 |  | 
27 | CCCc1ccc(N2Cc3ccc(OC)cc3C2=O)cc1 [ALB-115708] | 1.1 |  |  | 
28 | CC(C)Oc1ccc2c(c1)C(=O)N(c1ccc(C(C)C)cc1)C2 [ALB-116076] | 1.35 | 72 |  | 
29 | CC(C(=O)O)c1ccc(N2Cc3ccc(Br)cc3C2=O)cc1 (stereo not shown) [ALB-112352] |  | 130 |  | 1.12
30 | CCOc1ccc2c(c1)CN(c1ccc(C(C)C(=O)O)cc1)C2=O (stereo not shown) [ALB-113649] | 1.13 |  |  | 
31 | CCCc1ccc(N2Cc3ccc(Br)cc3C2=O)cc1 [ALB-115589] | 1.39 | 143 |  | 
32 | CC(C)c1ccc(N2Cc3ccc4c(c3C2=O)OCO4)cc1 [ALB-117751] |  | 27 | 1.34 | 
33 | CC(C)c1ccc(N2Cc3cccc(N)c3C2=O)cc1 [ALB-117574] | 1.73 | 163 |  | 
34 | CC(C(=O)O)c1ccc(N2Cc3c(Br)cccc3C2=O)cc1 (stereo not shown) [ALB-112066] | 1.12 | 21800 |  | 
35 | CC(C(=O)OC(C)(C)C)c1ccc(N2Cc3ccc(NC(=O)c4ccccc4)cc3C2=O)cc1 (stereo not shown) [ALB-111958] | 1.06 |  |  | 
36 | COc1cc2c(cc1F)CN(c1ccc(C(C)C(=O)O)cc1)C2=O (stereo not shown) [ALB-119048] | 1.54 | 255 |  | 
37 | CCCC(C)c1ccc(N2Cc3ccccc3C2=O)cc1 (stereo not shown) [ALB-117045] | 1.25 | 70 |  | 
38 | CC(C)c1ccc(N2Cc3ccc(OC4CCCC4)cc3C2=O)cc1 [ALB-116077] | 1.18 |  |  | 

Row | SMILES | maximal fold induction [1] | EC50 [2] [nM] | maximal fold induction [3] | maximal fold induction (read-out: SMN Splice Reporter Assay (Example 10) Avg MaxFold Increase, maximum fold increase of reporter signal, average, heading: SMN Splice Reporter Assay Avg MaxFold Increase)
39 | Cc1ccc2c(c1)CN(c1ccc(C(C)C(=O)O)cc1)C2=O (stereo not shown) [ALB-112556] | 1.56 | 146 |  | 
40 | CC(C)c1ccc(N2Cc3ccc(NC(=O)Nc4ccccc4)cc3C2=O)cc1 [ALB-118416] |  |  | 1.17 | 
41 | CC(C)Cc1ccc2c(c1)C(=O)N(c1ccc(C(C)C)cc1)C2 [ALB-116245] | 1.36 | 219 |  | 
42 | CCCC(C)(C(=O)O)c1ccc(N2Cc3ccccc3C2=O)cc1 (stereo not shown) [ALB-111857] | 1.07 |  |  | 
43 | CC(C)Oc1ccc2c(c1)CN(c1ccc(C(C)C(=O)O)cc1)C2=O (stereo not shown) [ALB-113834] | 1.1 |  |  | 
44 | COCC(C)c1ccc(N2Cc3cc(OC)c(OC)cc3C2=O)cc1 (stereo not shown) [ALB-114943] | 1.35 | 1320 |  | 
45 | CC(C)c1ccc(N2Cc3cc(Br)ccc3C2=O)cc1 [ALB-115810] | 1.44 | 145 |  | 
46 | CNC(=O)Nc1ccc2c(c1)C(=O)N(c1ccc(C(C)C)cc1)C2 [ALB-118558] |  | 865 | 1.58 | 
47 | CC(C)c1ccc(N2Cc3cc(O)ccc3C2=O)cc1 [ALB-118277] |  | 27 | 1.15 | 
48 | O=C(O)Cc1ccc(N2Cc3ccccc3C2=O)cc1 [ALB-112235] | 0.941 |  |  | 
49 | CC(C(=O)O)c1ccc(N2Cc3cc(NS(C)(=O)=O)ccc3C2=O)cc1 (stereo not shown) [ALB-113647] |  |  | 1.11 | 
50 | CCCCc1cccc2c1C(=O)N(c1ccc(C(C)C(=O)O)cc1)C2 (stereo not shown) [ALB-113757] | 1.18 |  |  | 
51 | CC(C)(C)OC(=O)C1(c2ccc(N3Cc4ccccc4C3=O)cc2)CC1 [ALB-112365] | 1.5 | 12400 |  | 
52 | CCCCc1ccc2c(c1)CN(c1ccc(C(C)C(=O)O)cc1)C2=O (stereo not shown) [ALB-113835] | 1.15 |  |  | 
53 | CC(C(=O)O)c1ccc(N2Cc3ccccc3C2=O)c(-c2cncnc2)c1 (stereo not shown) [ALB-112231] | 1.08 |  |  | 
54 | CC(C)c1ccc(N2Cc3ccc(O)c(O)c3C2=O)cc1 [ALB-117903] |  |  | 1.07 | 
55 | CC(C(=O)O)c1ccc(N2Cc3ccc(C#N)cc3C2=O)cc1 (stereo not shown) [ALB-112478] | 1.23 | 2040 |  | 
56 | CC(C(=O)NC#N)c1ccc(N2Cc3ccccc3C2=O)cc1 (stereo not shown) [ALB-111746] | 1.11 |  |  | 
57 | CCCc1cccc2c1C(=O)N(c1ccc(C(C)C(=O)O)cc1)C2 (stereo not shown) [ALB-113756] | 1.33 | 15700 |  | 
